Patent US11274124B2, “Tubulysin analogues as anticancer agents and payloads for antibody-drug conjugates and methods of treatment therewith” (William Marsh Rice University, priority 2017, dated 2022)
Read-outs that look alike come from different tables or passages of the source.

How the values were obtained:
[1] = test system: MES SA (uterine sarcoma cell line); experiment: In vitro cytotoxicity assay (CellTiter-Glo, 72 hours), MES SA; format: cell-based; settings: Homo sapiens, MES-SA, 72 h
[2] = test system: HEK 293T (human embryonic kidney cancer cell line); experiment: In vitro cytotoxicity assay (CellTiter-Glo, 72 hours), HEK 293T; format: cell-based; settings: Homo sapiens, HEK-293T, 72 h
[3] = test system: MES SA DX (MES SA cell line with marked multi-drug resistance); experiment: In vitro cytotoxicity assay (CellTiter-Glo, 72 hours), MES SA DX; settings: for IC50: Homo sapiens, MES-SA, 72 h
[4] = test system: MES SA, MES SA DX and HEK 293T cells; experiment: In vitro cytotoxicity assay, structure-activity discussion over the cell lines tested; settings: refers to Tables 2 and 3
[5] = read-out: MES SA, IC50 Value in nM
[6] = read-out: HEK 293T, IC50 Value in nM
[7] = read-out: MES SA DX, IC50 Value in nM

| SMILES | IC50 [1, 5] | IC50 [2, 6] | IC50 [3, 7] | cytotoxicity potency (in words, structure-activity discussion) [4] | IC50 ([1]; read-out: MES SA, IC50) | IC50 ([2]; read-out: HEK 293T, IC50) | cytotoxicities against the marked drug resistant cancer cell line MES SA DX (in words) [3] | IC50 ([3]; read-out: MES SA DX, IC50) |
| --- | --- | --- | --- | --- | --- | --- | --- | --- |
| COC(=O)CC[C@H](Cc1ccccc1)NC(=O)c1csc([C@@H](C[C@H](C(C)C)N(C)C(=O)[C@@H](NC(=O)[C@H]2CCCCN2C)C(C)C)OC(C)=O)n1 [Tb105, Methyl 4-{[(2-{1-acetoxy-4-methyl-3-[methyl(3-methyl-2-{[(1-methylpiperidin-2-yl)carbonyl]-amino}butanoyl)amino]pentyl}-1,3-thiazol-4-yl)carbonyl]amino}-5-phenylpentanoate] | 2.94 nM | 1.53 nM | > 1000 nM | considerable loss of activity | – | – | – | – |
| CC(=O)O[C@H](C[C@H](C(C)C)N(C)C(=O)[C@@H](NC(=O)[C@H]1CCCCN1C)C(C)C)c1nc(C(=O)N[C@@H](Cc2ccccc2)C[C@H](C)C(=O)O)cs1 [Tb61, (2S,4R)-4-[({2-[(1R,3R)-1-Acetoxy-4-methyl-3-{methyl[(2S)-3-methyl-2-({[(2R)-1-methylpiperidin-2-yl]carbonyl}amino)butanoyl]amino}pentyl]-1,3-thiazol-4-yl}carbonyl)amino]-2-methyl-5-phenylpentanoic acid] | 6.07 nM | 5.99 nM | > 1000 nM | exceptional potencies | – | – | – | – |
| COC(=O)[C@@H](C)C[C@H](Cc1ccccc1)NC(=O)c1nc([C@@H](C[C@H](C(C)C)N(C)C(=O)[C@@H](NC(=O)[C@H]2CCCCN2C)C(C)C)OC(C)=O)sc1C(C)C [Tb72, Methyl (2S,4R)-4-[({2-[(1R,3R)-1-acetoxy-4-methyl-3-{methyl[(2S)-3-methyl-2-({[(2R)-1-methyl-piperidin-2-yl]carbonyl}amino)butanoyl]amino}pentyl]-5-isopropyl-1,3-thiazol-4-yl}carbonyl)-amino]-2-methyl-5-phenylpentanoate] | 11.7 nM | 4.02 nM | > 70 nM | significant loss of potency | – | – | – | – |
| CCC(C)(C)[C@H](NC(=O)[C@H]1CCCCN1C)C(=O)N(C)[C@H](C[C@@H](OC(C)=O)c1nc(C(=O)N[C@@H](Cc2ccccc2)C[C@H](C)C(=O)O)cs1)C(C)C [Tb109, (2S,4R)-4-[({2-[(1R,3R)-1-Acetoxy-3-{[(2S)-3,3-dimethyl-2-({[(2R)-1-methylpiperidin-2-yl]car-bonyl}amino)pentanoyl](methyl)amino}-4-methylpentyl]-1,3-thiazol-4-yl}carbonyl)amino]-2-methyl-5-phenylpentanoic acid] | 0.36 nM | 0.01 nM | 1.39 nM | exceptional potencies | 0.36 nM | 0.01 nM | relatively potent (low nanomolar) | 1.39 nM |
| CCOC(=O)[C@@H](C)C[C@H](Cc1ccccc1)NC(=O)c1csc([C@@H](C[C@H](C(C)C)N(C)C(=O)[C@H](CCC(C)C)NC(=O)[C@H]2CCCN2C)OC(C)=O)n1 [Tb98, Ethyl (2S,4R)-4-[({2-[(1R,3R)-1-acetoxy-4-methyl-3-{methyl[(2S)-5-methyl-2-({[(2R)-1-methyl-pyrrolidin-2-yl]carbonyl}amino)hexanoyl]amino}pentyl]-1,3-thiazol-4-yl}carbonyl)amino]-2-meth-yl-5-phenylpentanoate] | 41.8 nM | 26.5 nM | 393 nM | lack of or significantly lower cytotoxicities | – | – | – | – |
| COC(=O)[C@@H](C)C[C@H](Cc1ccc2ccccc2c1)NC(=O)c1csc([C@@H](C[C@H](C(C)C)N(C)C(=O)[C@@H](NC(=O)[C@H]2CCCCN2C)C(C)C)OC(C)=O)n1 [Tb104, Methyl (2S)-4-{[(2-{1-acetoxy-4-methyl-3-[methyl(3-methyl-2-{[(1-methylpiperidin-2-yl)carbonyl]-amino}butanoyl)amino]pentyl}-1,3-thiazol-4-yl)carbonyl]amino}-2-methyl-5-(2-naphthyl)pentanoate] | 9.5 nM | 12.8 nM | > 1000 nM | modest potency | – | – | – | – |
| CCCC[C@H](NC(=O)[C@H]1CCCN1C)C(=O)N(C)[C@H](C[C@@H](OC(C)=O)c1nc(C(=O)N[C@@H](Cc2ccccc2)C[C@H](C)C(=O)OCC)cs1)C(C)C [Tb96, Ethyl (2S,4R)-4-[({2-[(1R,3R)-1-acetoxy-4-methyl-3-{methyl[(2S)-2-({[(2R)-1-methylpyrrolidin-2-yl]carbonyl}amino)hexanoyl]amino}pentyl]-1,3-thiazol-4-yl}carbonyl)amino]-2-methyl-5-phenylpentanoate] | 10.5 nM | 5.26 nM | > 1000 nM | lack of or significantly lower cytotoxicities | – | – | – | – |
| CC(=O)O[C@H](C[C@H](C(C)C)N(C)C(=O)[C@@H](NC(=O)[C@H]1CCCCN1C)C(C)C)c1nc(C(=O)N[C@@H](Cc2ccccc2)C[C@H](C)C(=O)O)c(C)s1 [Tb67, (2S,4R)-4-[({2-[(1R,3R)-1-Acetoxy-4-methyl-3-{methyl[(2S)-3-methyl-2-({[(2R)-1-methylpiperidin-2-yl]carbonyl}amino)butanoyl]amino}pentyl]-5-methyl-1,3-thiazol-4-yl}carbonyl)amino]-2-methyl-5-phenylpentanoic acid] | 0.836 nM | 0.143 nM | 71.5 nM | some loss of potency | 0.836 nM | 0.144 nM | – | 71.5 nM |
| CC[C@H](C)[C@H](NC(=O)c1nccn1C)C(=O)N(C)[C@H](C[C@@H](OC(C)=O)c1nc(C(=O)N[C@@H](Cc2ccccc2)C[C@H](C)C(=O)OC)cs1)C(C)C [Tb51] | > 1000 nM | > 1000 nM | > 1000 nM | insignificant or low biological activity | – | – | – | – |
| CCOC(=O)[C@@H](C)C[C@H](Cc1ccccc1)NC(=O)c1csc([C@@H](C[C@H](C(C)C)N(C)C(=O)CNC(=O)[C@H]2CCCCN2C)OC(C)=O)n1 [Tb88, Ethyl (2S,4R)-4-[({2-[(1R,3R)-1-acetoxy-4-methyl-3-{methyl[({[(2R)-1-methylpiperidin-2-yl]carbonyl}amino)acetyl]amino}pentyl]-1,3-thiazol-4-yl}carbonyl)amino]-2-methyl-5-phenylpentanoate] | 458 nM | 494 nM | > 2500 nM | no significant activity | – | – | – | – |
| CC(=O)O[C@H](C[C@H](C(C)C)N(C)C(=O)[C@@H](NC(=O)[C@H]1CCCN1C)C(C)C)c1nc(C(=O)N[C@@H](Cc2ccccc2)C[C@H](C)C(=O)O)c(C)s1 [Tb71, (2S,4R)-4-[({2-[(1R,3R)-1-Acetoxy-4-methyl-3-{methyl[(2S)-3-methyl-2-({[(2R)-1-methylpyrrolidin-2-yl]carbonyl}amino)butanoyl]amino}pentyl]-5-methyl-1,3-thiazol-4-yl}carbonyl)amino]-2-methyl-5-phenylpentanoic acid] | 1.42 nM | 0.408 nM | > 1000 nM | significant loss of potency | – | – | – | – |
| CC(=O)O[C@H](C[C@H](C(C)C)N(C)C(=O)[C@@H](NC(=O)[C@H]1CCCCN1C)C(C)(C)C)c1nc(C(=O)N[C@@H](Cc2ccccc2)C[C@H](C)C(=O)O)cs1 [Tb107, (2S,4R)-4-[({2-[(1R,3R)-1-Acetoxy-3-{[(2S)-3,3-dimethyl-2-({[(2R)-1-methylpiperidin-2-yl]carbonyl}amino)butanoyl](methyl)amino}-4-methylpentyl]-1,3-thiazol-4-yl}carbonyl)amino]-2-methyl-5-phenylpentanoic acid] | 0.01 nM | 0.02 nM | 4.05 nM | exceptional potencies | 0.01 nM | 0.02 nM | relatively potent (low nanomolar) | 4.05 nM |
| CC(C)[C@H](NC(=O)[C@H]1CCCCN1C)C(=O)N(C)[C@H](CC(=O)c1nc(C(=O)N[C@@H](Cc2ccccc2)C[C@H](C)C(=O)O)cs1)C(C)C [Tb62, (2S,4R)-2-Methyl-4-[({2-[(3R)-4-methyl-3-{methyl[(2S)-3-methyl-2-({[(2R)-1-methylpiperidin-2-yl]-carbonyl}amino)butanoyl]amino}pentanoyl]-1,3-thiazol-4-yl}carbonyl)amino]-5-phenylpentanoic acid] | > 1000 nM | > 1000 nM | > 1000 nM | significant reduction in potency | – | – | – | – |
